We go through 2 compounds from publication PMC8178126, “Evaluation of the available cholesterol concentration in the inner leaflet of the plasma membrane of mammalian cells” (Journal of Lipid Research, 2021).

For this test, the target named is T1, Osh4-Δ1-40 (template of Osh4-Δ1-40(K109A) and eOsh4) (Saccharomyces cerevisiae, UniProt P35844, K109A).
T1 construct: gene KES1; N-terminal lid (aa 1-40) removed; pET-30a, N- and C-terminal His6 tags (printed for eOsh4), E. coli BL21 RIL codon plus
Nature of the test: SPR (BIACORE X-100, L1 chip, immobilised LUVs, equilibrium Req). The test is classed as binding. The following applies: apparent, 20 mM Tris pH 7.4, 0.16 M NaCl, 23 °C.

In the case of `CC(C)CCC[C@@H](C)[C@H]1CC[C@H]2[C@@H]3CC=C4C[C@@H](O)CC[C@]4(C)[C@H]3CC[C@]12C` [cholesterol], the Kd (protein concentration at half-maximal binding to POPC/POPS/cholesterol 75:20:5 LUVs (Fig. 3D legend 77:20:5)) turned out to be 100 ± 16 nM. Turning to `C[C@H](CCCC(C)(C)O)[C@H]1CC[C@H]2[C@@H]3CC=C4C[C@@H](O)CC[C@]4(C)[C@H]3CC[C@]12C` [25-hydroxycholesterol], where the note is “protein concentration at half-maximal binding to POPC/POPS/25HC 75:20:5 LUVs (Fig. 3D legend 77:20:5)”, the Kd is 800 ± 130 nM.
